Source: the NIST ThermoML archive (doi:10.1021/je400055v)

Assay: xn = mol fraction of the nth substance listed
Details: Liquid, Vibrating tube method, x1 = 0.4891

Cc1cccc(O)c1 [3-methylphenol] + Cc1ccccc1O
Details	mass density [kg/m3]
313.19 K, 103.35 kPa	1023.8
313.19 K, 206.8 kPa	1024.3
313.19 K, 308.94 kPa	1024.9
313.19 K, 406.72 kPa	1025.5
313.19 K, 509.16 kPa	1026
313.19 K, 609.17 kPa	1026.6
313.19 K, 710.69 kPa	1027.1
313.19 K, 813.34 kPa	1027.7
313.19 K, 912.33 kPa	1028.3
313.19 K, 1014.1 kPa	1028.8
313.19 K, 1115.4 kPa	1029.3
313.19 K, 1219.9 kPa	1029.9
313.19 K, 1317.7 kPa	1030.4
313.19 K, 1421.7 kPa	1031
313.19 K, 1522.3 kPa	1031.5
313.19 K, 1625.4 kPa	1032.1
313.19 K, 1723.2 kPa	1032.6
313.19 K, 1824.4 kPa	1033.1
313.19 K, 1926.4 kPa	1033.6
313.19 K, 2026.8 kPa	1034.1
313.19 K, 2129.3 kPa	1034.7
313.19 K, 2229.4 kPa	1035.2
313.19 K, 2333 kPa	1035.7
313.19 K, 2433.2 kPa	1036.2
313.19 K, 2532.9 kPa	1036.7
323.14 K, 101.12 kPa	1015.4
323.14 K, 206.5 kPa	1016
323.14 K, 310.87 kPa	1016.6
323.14 K, 408.14 kPa	1017.1
323.14 K, 510.78 kPa	1017.8
323.14 K, 609.67 kPa	1018.3
323.14 K, 712.01 kPa	1018.9
323.14 K, 812.42 kPa	1019.5
323.14 K, 916.79 kPa	1020.1
323.14 K, 1012.2 kPa	1020.6
323.14 K, 1115.9 kPa	1021.2
323.14 K, 1217.9 kPa	1021.8
323.14 K, 1321.1 kPa	1022.4
323.14 K, 1420.2 kPa	1022.9
323.14 K, 1520.1 kPa	1023.5
323.14 K, 1622.5 kPa	1024
323.14 K, 1723.3 kPa	1024.6
323.14 K, 1823.7 kPa	1025.1
323.14 K, 1926.1 kPa	1025.6
323.14 K, 2028 kPa	1026.2
323.14 K, 2128.7 kPa	1026.7
323.14 K, 2232.2 kPa	1027.3
323.14 K, 2331 kPa	1027.8
323.14 K, 2434.8 kPa	1028.4
323.14 K, 2533.2 kPa	1028.9
333.08 K, 104.06 kPa	1007
333.08 K, 209.13 kPa	1007.6
333.08 K, 305.29 kPa	1008.2
333.08 K, 408.54 kPa	1008.8
333.08 K, 507.94 kPa	1009.4
333.08 K, 610.79 kPa	1010.1
333.08 K, 708.67 kPa	1010.6
333.08 K, 812.42 kPa	1011.3
333.08 K, 913.04 kPa	1011.9
333.08 K, 1015.7 kPa	1012.5
333.08 K, 1115.2 kPa	1013
333.08 K, 1217.7 kPa	1013.7
333.08 K, 1318 kPa	1014.2
333.08 K, 1419 kPa	1014.8
333.08 K, 1520.9 kPa	1015.4
333.08 K, 1624.9 kPa	1016
333.08 K, 1724.2 kPa	1016.6
333.08 K, 1824.2 kPa	1017.1
333.08 K, 1925.9 kPa	1017.7
333.08 K, 2031 kPa	1018.3
333.08 K, 2132.9 kPa	1018.9
333.08 K, 2232.5 kPa	1019.4
333.08 K, 2336 kPa	1020
333.08 K, 2438 kPa	1020.6
333.08 K, 2536.6 kPa	1021.1
343.04 K, 103.66 kPa	998.4
343.04 K, 208.53 kPa	999
343.04 K, 305.8 kPa	999.7
343.04 K, 406.72 kPa	1000.3
343.04 K, 510.78 kPa	1001
343.04 K, 609.67 kPa	1001.6
343.04 K, 711.4 kPa	1002.3
343.04 K, 812.12 kPa	1002.9
343.04 K, 912.13 kPa	1003.5
343.04 K, 1014 kPa	1004.1
343.04 K, 1115.1 kPa	1004.8
343.04 K, 1220.8 kPa	1005.4
343.04 K, 1318.1 kPa	1006
343.04 K, 1420.7 kPa	1006.6
343.04 K, 1520.6 kPa	1007.2
343.04 K, 1621 kPa	1007.9
343.04 K, 1722.2 kPa	1008.4
343.04 K, 1824.6 kPa	1009.1
343.04 K, 1925.9 kPa	1009.7
343.04 K, 2028.3 kPa	1010.2
343.04 K, 2130 kPa	1010.8
343.04 K, 2233.9 kPa	1011.4
343.04 K, 2330.6 kPa	1011.9
343.04 K, 2432 kPa	1012.5
343.04 K, 2536.8 kPa	1013.1
352.98 K, 105.78 kPa	990
352.98 K, 204.88 kPa	990.6
352.98 K, 305.29 kPa	991.3
352.98 K, 408.64 kPa	992
352.98 K, 509.16 kPa	992.6
352.98 K, 610.18 kPa	993.3
352.98 K, 707.96 kPa	993.9
352.98 K, 810.8 kPa	994.7
352.98 K, 913.45 kPa	995.3
352.98 K, 1013.5 kPa	996
352.98 K, 1116.7 kPa	996.6
352.98 K, 1217.9 kPa	997.2
352.98 K, 1316.1 kPa	997.9
352.98 K, 1418 kPa	998.5
352.98 K, 1519.3 kPa	999.1
352.98 K, 1623.4 kPa	999.8
352.98 K, 1723.3 kPa	1000.4
352.98 K, 1821.8 kPa	1001
352.98 K, 1928 kPa	1001.7
352.98 K, 2027.3 kPa	1002.3
352.98 K, 2129.3 kPa	1002.9
352.98 K, 2237.1 kPa	1003.5
352.98 K, 2331.9 kPa	1004.2
352.98 K, 2437.8 kPa	1004.8
352.98 K, 2536.4 kPa	1005.4
362.91 K, 106.69 kPa	981.5
362.91 K, 203.97 kPa	982.2
362.91 K, 305.9 kPa	982.9
362.91 K, 407.53 kPa	983.6
362.91 K, 510.78 kPa	984.3
362.91 K, 608.36 kPa	985
362.91 K, 708.57 kPa	985.7
362.91 K, 811.21 kPa	986.3
362.91 K, 912.33 kPa	987
362.91 K, 1013.1 kPa	987.7
362.91 K, 1114.2 kPa	988.3
362.91 K, 1215.1 kPa	989
362.91 K, 1318.3 kPa	989.7
362.91 K, 1418.7 kPa	990.3
362.91 K, 1520.8 kPa	991
362.91 K, 1622.2 kPa	991.7
362.91 K, 1723.8 kPa	992.3
362.91 K, 1825.8 kPa	993
362.91 K, 1926.1 kPa	993.6
362.91 K, 2030.7 kPa	994.3
362.91 K, 2128.7 kPa	994.9
362.91 K, 2230.1 kPa	995.5
362.91 K, 2332.4 kPa	996.2
362.91 K, 2434.6 kPa	996.8
362.91 K, 2536.1 kPa	997.5
